Laboratory results as given in ChEMBL document CHEMBL1201862, “PubChem BioAssay data set” (2004).
Calls of active or inactive are those of the source. No stated cut-off is given here; in the data, actives have a measured IC50 and inactives only a lower limit.

Target: Envelope glycoprotein gp160 (Human immunodeficiency virus 1, UniProt Q6QLK5)
Test: inhibitors of HIV fusion peptide binding, primary screen, biochemical, uHTS, fluorescence dequenching (AID 1986)

Envelope glycoprotein gp160, sequence (Q6QLK5 whole entry, the tested form may be a part): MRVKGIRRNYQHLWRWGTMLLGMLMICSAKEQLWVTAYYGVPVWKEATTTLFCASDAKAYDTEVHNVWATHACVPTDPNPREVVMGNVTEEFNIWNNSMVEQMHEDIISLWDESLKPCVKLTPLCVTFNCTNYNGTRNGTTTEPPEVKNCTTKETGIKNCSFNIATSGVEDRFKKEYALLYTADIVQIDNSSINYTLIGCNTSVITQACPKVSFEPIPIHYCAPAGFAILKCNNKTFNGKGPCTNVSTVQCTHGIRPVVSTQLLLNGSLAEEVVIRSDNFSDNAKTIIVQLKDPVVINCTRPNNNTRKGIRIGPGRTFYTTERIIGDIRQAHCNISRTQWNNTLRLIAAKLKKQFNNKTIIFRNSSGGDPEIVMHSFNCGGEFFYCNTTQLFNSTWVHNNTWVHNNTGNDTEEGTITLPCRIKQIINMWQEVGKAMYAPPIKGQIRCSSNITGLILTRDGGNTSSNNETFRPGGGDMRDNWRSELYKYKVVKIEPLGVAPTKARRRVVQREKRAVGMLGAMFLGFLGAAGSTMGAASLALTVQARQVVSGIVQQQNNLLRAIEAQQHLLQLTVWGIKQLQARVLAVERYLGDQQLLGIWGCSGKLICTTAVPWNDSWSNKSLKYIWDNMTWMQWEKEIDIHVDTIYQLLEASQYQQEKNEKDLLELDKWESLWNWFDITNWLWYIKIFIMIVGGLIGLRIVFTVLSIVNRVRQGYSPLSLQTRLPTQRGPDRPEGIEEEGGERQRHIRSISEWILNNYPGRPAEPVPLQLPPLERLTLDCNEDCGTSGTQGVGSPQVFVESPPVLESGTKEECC

| Structure (SMILES) | IC50 |
| --- | --- |
| CC(/C=C1\SC(=S)N(c2ccc(C(=O)O)cc2)C1=O)=C\c1ccccc1 | 16.2 µM (active) |
| C=CCOc1ccc(C(c2c(C(=O)O)[nH]c3ccccc23)c2c(C(=O)O)[nH]c3ccccc23)cc1 | 5.01 µM (active) |
